Source: ChEMBL document CHEMBL4823254, “Tetrahydroquinoline-Capped Histone Deacetylase 6 Inhibitor SW-101 Ameliorates Pathological Phenotypes in a Charcot-Marie-Tooth Type 2A Mouse Model” (J Med Chem, 2021)
pIC50: −log10 of the molar value.

Tested on: not listed separately
Assay: Half life in human pooled liver microsomes assessed as parent compound remaining measured up to 60 mins in presence of NADPH by LC-MS/MS analysis
Format: ADME, Microsome
Conditions: pooled liver microsomes

half-life | SMILES
0.37 h | O=C(NO)c1ccc(CN2CCCCc3cc(-c4cc[nH]n4)ccc32)cc1
4.03 h | O=C(NO)c1ccc(CN2CCCCc3ccccc32)cc1
35.5 h | O=C(NO)c1ccc(CN2CCCCc3cc(Cl)ccc32)cc1
12 h | O=C(NO)c1ccc(CN2C(=O)CCCc3cc(Cl)ccc32)cc1
4.21 h | N#Cc1ccc2c(c1)CCCCN2Cc1ccc(C(=O)NO)cc1
9.62 h | O=C(NO)c1ccc(CN2C(=O)CCc3cc(Cl)ccc32)cc1

Molecular target: Histone deacetylase 1 (Homo sapiens, UniProt Q13547)
Sequence (Q13547 whole entry): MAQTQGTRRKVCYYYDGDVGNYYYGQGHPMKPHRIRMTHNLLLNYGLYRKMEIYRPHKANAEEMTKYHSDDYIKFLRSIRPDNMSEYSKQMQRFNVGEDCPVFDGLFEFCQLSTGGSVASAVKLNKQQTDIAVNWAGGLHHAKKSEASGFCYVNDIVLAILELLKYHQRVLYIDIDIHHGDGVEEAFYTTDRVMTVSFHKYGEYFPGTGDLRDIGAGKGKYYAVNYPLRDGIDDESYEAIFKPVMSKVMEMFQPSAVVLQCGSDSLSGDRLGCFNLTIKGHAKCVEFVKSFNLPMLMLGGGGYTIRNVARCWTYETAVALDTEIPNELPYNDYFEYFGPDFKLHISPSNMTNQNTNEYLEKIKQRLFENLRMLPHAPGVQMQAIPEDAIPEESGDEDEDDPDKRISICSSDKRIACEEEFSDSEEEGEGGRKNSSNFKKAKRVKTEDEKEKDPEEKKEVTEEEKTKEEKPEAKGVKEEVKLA
Conditions: not given

pIC50 | SMILES
5.97 | O=C(NO)c1ccc(CN2CCCCc3cc(-c4cc[nH]n4)ccc32)cc1
5.88 | O=C(NO)c1ccc(CN2CCCCc3ccccc32)cc1
5.72 | O=C(NO)c1ccc(CN2CCCCc3cc(Cl)ccc32)cc1
6.90 | O=C(NO)c1ccc(CN2C(=O)CCCc3cc(Cl)ccc32)cc1
6.61 | N#Cc1ccc2c(c1)CCCCN2Cc1ccc(C(=O)NO)cc1
6.56 | O=C(NO)c1ccc(CN2C(=O)CCc3cc(Cl)ccc32)cc1

Molecular target: T1, Protein deacetylase HDAC6 (Mus musculus) (UniProt Q9Z2V5)
T1 sequence (whole entry): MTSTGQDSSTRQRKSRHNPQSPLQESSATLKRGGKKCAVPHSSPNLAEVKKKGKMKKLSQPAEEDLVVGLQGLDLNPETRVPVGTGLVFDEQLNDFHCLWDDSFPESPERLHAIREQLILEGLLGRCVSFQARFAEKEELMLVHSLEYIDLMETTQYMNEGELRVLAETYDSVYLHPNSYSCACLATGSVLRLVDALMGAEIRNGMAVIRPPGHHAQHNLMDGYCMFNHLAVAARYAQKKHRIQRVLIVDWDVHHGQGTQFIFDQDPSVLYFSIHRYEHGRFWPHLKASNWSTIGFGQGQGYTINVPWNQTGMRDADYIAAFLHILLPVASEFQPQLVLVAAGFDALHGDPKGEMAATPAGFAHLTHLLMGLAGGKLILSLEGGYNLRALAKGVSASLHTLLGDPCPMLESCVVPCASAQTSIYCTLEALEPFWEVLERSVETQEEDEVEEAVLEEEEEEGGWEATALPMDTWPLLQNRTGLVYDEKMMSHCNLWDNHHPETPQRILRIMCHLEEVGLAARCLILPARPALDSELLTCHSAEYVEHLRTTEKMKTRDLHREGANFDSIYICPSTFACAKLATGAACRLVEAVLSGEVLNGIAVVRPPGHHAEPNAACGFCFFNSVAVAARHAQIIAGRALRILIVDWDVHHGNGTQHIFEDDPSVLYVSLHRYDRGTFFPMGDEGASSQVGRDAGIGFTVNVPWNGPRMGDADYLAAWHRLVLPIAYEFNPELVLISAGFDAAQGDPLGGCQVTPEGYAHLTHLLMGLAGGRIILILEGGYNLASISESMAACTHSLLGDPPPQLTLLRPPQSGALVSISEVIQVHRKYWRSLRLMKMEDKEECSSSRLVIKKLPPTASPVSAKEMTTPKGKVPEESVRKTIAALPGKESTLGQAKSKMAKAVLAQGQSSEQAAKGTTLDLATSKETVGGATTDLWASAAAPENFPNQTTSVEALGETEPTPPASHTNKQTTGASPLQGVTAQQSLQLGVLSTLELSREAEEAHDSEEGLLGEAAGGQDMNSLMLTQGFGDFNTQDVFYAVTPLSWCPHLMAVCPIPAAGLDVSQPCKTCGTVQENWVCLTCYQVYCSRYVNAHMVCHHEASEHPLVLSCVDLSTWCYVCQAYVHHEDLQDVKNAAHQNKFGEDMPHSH
Assay: Inhibition of HDAC6 in mouse Neuro2a cells assessed as fold increase in ratio of acetylated alpha-tubulin to alpha tubulin at 1 uM incubated for overnight by Western blot analysis
Format: cell-based
Conditions: time 12.0 hrs

fold change (FC) | SMILES
1.78 | O=C(NO)c1ccc(CN2CCCCc3cc(-c4cc[nH]n4)ccc32)cc1
0.78 | O=C(NO)c1ccc(CN2CCCCc3ccccc32)cc1
0.55 | O=C(NO)c1ccc(CN2CCCCc3cc(Cl)ccc32)cc1
1.73 | O=C(NO)c1ccc(CN2C(=O)CCCc3cc(Cl)ccc32)cc1
0.98 | N#Cc1ccc2c(c1)CCCCN2Cc1ccc(C(=O)NO)cc1
1.51 | O=C(NO)c1ccc(CN2C(=O)CCc3cc(Cl)ccc32)cc1

Molecular target: T2, Histone deacetylase 8 (Homo sapiens, UniProt Q9BY41)
T2 sequence (Q9BY41 whole entry): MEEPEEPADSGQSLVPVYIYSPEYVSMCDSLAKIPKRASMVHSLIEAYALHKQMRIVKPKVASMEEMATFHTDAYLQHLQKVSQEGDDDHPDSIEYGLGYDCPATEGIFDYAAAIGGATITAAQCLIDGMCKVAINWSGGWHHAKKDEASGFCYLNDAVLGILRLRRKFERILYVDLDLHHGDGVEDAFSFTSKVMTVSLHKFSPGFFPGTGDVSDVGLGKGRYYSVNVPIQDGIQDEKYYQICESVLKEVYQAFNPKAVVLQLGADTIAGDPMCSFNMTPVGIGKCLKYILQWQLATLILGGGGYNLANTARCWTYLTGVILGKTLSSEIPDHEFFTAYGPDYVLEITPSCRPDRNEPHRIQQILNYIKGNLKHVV
Conditions: not given

pIC50 | SMILES
5.55 | O=C(NO)c1ccc(CN2CCCCc3cc(-c4cc[nH]n4)ccc32)cc1
5.25 | O=C(NO)c1ccc(CN2CCCCc3ccccc32)cc1
5.06 | O=C(NO)c1ccc(CN2CCCCc3cc(Cl)ccc32)cc1
5.93 | O=C(NO)c1ccc(CN2C(=O)CCCc3cc(Cl)ccc32)cc1
5.65 | N#Cc1ccc2c(c1)CCCCN2Cc1ccc(C(=O)NO)cc1
5.68 | O=C(NO)c1ccc(CN2C(=O)CCc3cc(Cl)ccc32)cc1

Tested on: not listed separately
Assay: Stability in CD1 mouse pooled liver microsomes assessed as parent compound remaining measured at 60 mins in presence of NADPH by LC-MS/MS analysis
Format: ADME, Microsome
Conditions: CD1, mouse, pooled liver microsomes, read-out: Stabilty

remaining at 1 h | SMILES
10.1% | O=C(NO)c1ccc(CN2CCCCc3cc(-c4cc[nH]n4)ccc32)cc1
34.7% | O=C(NO)c1ccc(CN2CCCCc3ccccc32)cc1
34.7% | O=C(NO)c1ccc(CN2CCCCc3cc(Cl)ccc32)cc1
68.1% | O=C(NO)c1ccc(CN2C(=O)CCCc3cc(Cl)ccc32)cc1
80.8% | N#Cc1ccc2c(c1)CCCCN2Cc1ccc(C(=O)NO)cc1

Same assay, conditions: mouse, microsomes, 1 h

Stabilty | SMILES
77.7% | O=C(NO)c1ccc(CN2C(=O)CCc3cc(Cl)ccc32)cc1

Tested on: not listed separately
Assay: Stability in human pooled liver microsomes assessed as parent compound remaining measured at 60 mins in presence of NADPH by LC-MS/MS analysis
Format: ADME, Microsome
Conditions: pooled liver microsomes, read-out: Stabilty

remaining at 1 h | SMILES
15% | O=C(NO)c1ccc(CN2CCCCc3cc(-c4cc[nH]n4)ccc32)cc1
83.9% | O=C(NO)c1ccc(CN2CCCCc3ccccc32)cc1
83.9% | O=C(NO)c1ccc(CN2CCCCc3cc(Cl)ccc32)cc1
95.3% | O=C(NO)c1ccc(CN2C(=O)CCCc3cc(Cl)ccc32)cc1
84.9% | N#Cc1ccc2c(c1)CCCCN2Cc1ccc(C(=O)NO)cc1
92.6% | O=C(NO)c1ccc(CN2C(=O)CCc3cc(Cl)ccc32)cc1

Tested on: not listed separately
Assay: Half life in CD1 mouse pooled liver microsomes assessed as parent compound remaining measured up to 60 mins in presence of NADPH by LC-MS/MS analysis
Format: ADME, Microsome
Conditions: CD1, mouse, pooled liver microsomes

half-life | SMILES
0.305 h | O=C(NO)c1ccc(CN2CCCCc3cc(-c4cc[nH]n4)ccc32)cc1
0.66 h | O=C(NO)c1ccc(CN2CCCCc3ccccc32)cc1
1.01 h | O=C(NO)c1ccc(CN2CCCCc3cc(Cl)ccc32)cc1
1.83 h | O=C(NO)c1ccc(CN2C(=O)CCCc3cc(Cl)ccc32)cc1
3.26 h | N#Cc1ccc2c(c1)CCCCN2Cc1ccc(C(=O)NO)cc1

Same assay, conditions: mouse, microsomes, 1 h

t1/2 | SMILES
29.05 h | O=C(NO)c1ccc(CN2C(=O)CCc3cc(Cl)ccc32)cc1

Molecular target: T3, Protein deacetylase HDAC6 (Homo sapiens, UniProt Q9UBN7)
T3 sequence (Q9UBN7 whole entry): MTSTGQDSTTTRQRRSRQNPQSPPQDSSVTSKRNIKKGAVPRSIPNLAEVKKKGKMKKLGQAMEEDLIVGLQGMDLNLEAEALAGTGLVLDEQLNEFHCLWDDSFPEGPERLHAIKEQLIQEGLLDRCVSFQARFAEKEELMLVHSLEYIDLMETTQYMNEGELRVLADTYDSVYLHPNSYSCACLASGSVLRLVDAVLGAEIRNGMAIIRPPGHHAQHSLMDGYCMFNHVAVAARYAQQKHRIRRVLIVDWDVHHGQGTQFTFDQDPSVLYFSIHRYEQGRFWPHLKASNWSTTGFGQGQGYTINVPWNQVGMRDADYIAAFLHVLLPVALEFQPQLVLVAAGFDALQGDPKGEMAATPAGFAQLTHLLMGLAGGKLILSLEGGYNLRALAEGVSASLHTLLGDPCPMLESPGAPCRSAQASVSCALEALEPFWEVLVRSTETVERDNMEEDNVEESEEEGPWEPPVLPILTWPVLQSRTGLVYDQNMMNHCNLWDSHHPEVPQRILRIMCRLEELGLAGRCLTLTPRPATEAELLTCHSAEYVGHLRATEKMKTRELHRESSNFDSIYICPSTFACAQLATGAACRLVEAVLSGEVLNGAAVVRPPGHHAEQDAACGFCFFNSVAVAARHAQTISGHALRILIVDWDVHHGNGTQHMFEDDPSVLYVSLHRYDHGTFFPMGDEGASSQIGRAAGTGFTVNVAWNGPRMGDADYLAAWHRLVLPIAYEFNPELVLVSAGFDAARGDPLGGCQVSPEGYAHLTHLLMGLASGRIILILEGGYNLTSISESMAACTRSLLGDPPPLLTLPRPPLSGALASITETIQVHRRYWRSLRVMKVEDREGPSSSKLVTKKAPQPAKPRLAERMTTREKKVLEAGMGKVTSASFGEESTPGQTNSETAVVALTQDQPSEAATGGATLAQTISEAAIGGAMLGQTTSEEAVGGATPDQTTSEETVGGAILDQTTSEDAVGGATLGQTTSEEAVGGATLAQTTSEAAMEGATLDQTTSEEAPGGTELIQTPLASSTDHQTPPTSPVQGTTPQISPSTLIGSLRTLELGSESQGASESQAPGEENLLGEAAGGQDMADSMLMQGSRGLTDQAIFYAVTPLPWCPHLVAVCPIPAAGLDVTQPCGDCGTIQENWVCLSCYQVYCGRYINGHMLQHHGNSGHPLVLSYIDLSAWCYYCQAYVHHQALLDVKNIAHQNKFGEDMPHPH
Conditions: not given

pIC50 | SMILES
7.77 | O=C(NO)c1ccc(CN2CCCCc3cc(-c4cc[nH]n4)ccc32)cc1
8.30 | O=C(NO)c1ccc(CN2CCCCc3ccccc32)cc1
9.00 | O=C(NO)c1ccc(CN2CCCCc3cc(Cl)ccc32)cc1
9.10 | O=C(NO)c1ccc(CN2C(=O)CCCc3cc(Cl)ccc32)cc1
8.34 | N#Cc1ccc2c(c1)CCCCN2Cc1ccc(C(=O)NO)cc1
8.54 | O=C(NO)c1ccc(CN2C(=O)CCc3cc(Cl)ccc32)cc1

Molecular target: T1, Protein deacetylase HDAC6 (Mus musculus)
Assay: Inhibition of HDAC6 in mouse Neuro2a cells assessed as fold increase in ratio of acetylated alpha-tubulin to alpha tubulin at 0.01 uM incubated for overnight by Western blot analysis
Format: cell-based
Conditions: time 12.0 hrs

fold change (FC) | SMILES
0.95 | O=C(NO)c1ccc(CN2CCCCc3cc(-c4cc[nH]n4)ccc32)cc1
0.98 | O=C(NO)c1ccc(CN2CCCCc3ccccc32)cc1
0.89 | O=C(NO)c1ccc(CN2CCCCc3cc(Cl)ccc32)cc1
2.81 | O=C(NO)c1ccc(CN2C(=O)CCCc3cc(Cl)ccc32)cc1
0.93 | O=C(NO)c1ccc(CN2C(=O)CCc3cc(Cl)ccc32)cc1
